The text below walks through data of patent US20180021360A1, “Combination Therapy Regimen For Treatment Of Selected HCV Genotypes” (JANSSEN PHARMACEUTICALS, INC., priority 2016, published 2018).

Data set [1] in a line: Phase 2a open-label combination study, pharmacokinetics. Type of data set: in vivo, human. Here is the method: A randomized, Phase 2a, open-label study was carried out to evaluate the safety, pharmacokinetics and efficacy of the combination of Compound (III), Odalasvir and Simeprevir in Genotype 1 treatment-naïve subjects with chronic hepatitis C. Other treatment-naïve subjects included Genotype 2, 3, 4, 5 and 6.
The aim of the study was to determine the efficacy, pharmacokinetics (PK), and safety of Compound (II)+Odalasvir±SMV in HCV-infected subjects.
This was an open-label study evaluating various dosing regimens of Compound (III)+Odalasvir±SMV for 6-8 weeks in treatment-nave HCV-infected subjects with varying clinical characteristics (e.g., GT 1 or 3, presence/absence of compensated Child Pugh A cirrhosis). Efficacy, PK and safety evaluations were conducted during and through 24 weeks post dosing. Up to 15 cohorts were enrolled; data was generated from cohorts that have completed dosing.

In data set [2] the target is MRP3 (Homo sapiens, UniProt O15438). The following applies: cited from earlier work.
Chain of MRP3 (O15438 whole entry): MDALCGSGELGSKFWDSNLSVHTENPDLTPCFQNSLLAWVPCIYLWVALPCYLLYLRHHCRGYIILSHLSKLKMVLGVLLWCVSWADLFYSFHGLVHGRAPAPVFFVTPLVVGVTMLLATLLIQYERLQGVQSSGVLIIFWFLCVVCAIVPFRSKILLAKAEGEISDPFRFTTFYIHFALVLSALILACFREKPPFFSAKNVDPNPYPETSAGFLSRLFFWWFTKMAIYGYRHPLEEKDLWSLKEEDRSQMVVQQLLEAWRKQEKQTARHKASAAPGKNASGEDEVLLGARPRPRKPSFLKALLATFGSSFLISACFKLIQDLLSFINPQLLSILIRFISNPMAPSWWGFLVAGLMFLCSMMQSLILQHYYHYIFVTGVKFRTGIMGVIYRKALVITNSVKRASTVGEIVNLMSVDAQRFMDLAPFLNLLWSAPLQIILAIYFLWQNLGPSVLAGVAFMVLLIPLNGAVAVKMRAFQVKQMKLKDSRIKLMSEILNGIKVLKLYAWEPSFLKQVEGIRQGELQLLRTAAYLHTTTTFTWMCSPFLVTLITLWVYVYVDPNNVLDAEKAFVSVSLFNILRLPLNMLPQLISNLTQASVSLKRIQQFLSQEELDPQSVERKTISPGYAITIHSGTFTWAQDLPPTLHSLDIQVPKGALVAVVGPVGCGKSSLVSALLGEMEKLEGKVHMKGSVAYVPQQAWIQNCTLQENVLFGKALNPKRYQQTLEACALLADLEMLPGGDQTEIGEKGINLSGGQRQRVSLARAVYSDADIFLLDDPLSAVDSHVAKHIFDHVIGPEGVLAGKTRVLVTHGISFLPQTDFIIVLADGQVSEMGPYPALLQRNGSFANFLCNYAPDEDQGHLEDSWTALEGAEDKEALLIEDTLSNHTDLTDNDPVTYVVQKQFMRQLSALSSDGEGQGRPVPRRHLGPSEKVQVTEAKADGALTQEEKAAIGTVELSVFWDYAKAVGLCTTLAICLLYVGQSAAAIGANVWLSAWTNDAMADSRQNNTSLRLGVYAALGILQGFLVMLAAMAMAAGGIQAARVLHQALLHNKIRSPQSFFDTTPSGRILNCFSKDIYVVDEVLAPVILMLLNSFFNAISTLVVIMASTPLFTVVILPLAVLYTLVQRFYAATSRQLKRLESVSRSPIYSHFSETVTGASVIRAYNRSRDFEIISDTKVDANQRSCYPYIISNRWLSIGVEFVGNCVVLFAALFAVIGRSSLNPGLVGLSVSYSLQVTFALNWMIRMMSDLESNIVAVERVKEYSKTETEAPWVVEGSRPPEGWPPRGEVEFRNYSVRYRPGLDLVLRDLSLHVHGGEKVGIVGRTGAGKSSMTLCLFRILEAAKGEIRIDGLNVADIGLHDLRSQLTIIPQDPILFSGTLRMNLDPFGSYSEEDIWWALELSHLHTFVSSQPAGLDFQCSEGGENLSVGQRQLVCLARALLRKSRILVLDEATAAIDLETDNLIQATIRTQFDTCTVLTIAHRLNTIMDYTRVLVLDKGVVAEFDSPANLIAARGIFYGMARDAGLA
The target of data set [3] is T1, OATP1B1 (Homo sapiens, UniProt Q9Y6L6).
T1 sequence (Q9Y6L6 1-691): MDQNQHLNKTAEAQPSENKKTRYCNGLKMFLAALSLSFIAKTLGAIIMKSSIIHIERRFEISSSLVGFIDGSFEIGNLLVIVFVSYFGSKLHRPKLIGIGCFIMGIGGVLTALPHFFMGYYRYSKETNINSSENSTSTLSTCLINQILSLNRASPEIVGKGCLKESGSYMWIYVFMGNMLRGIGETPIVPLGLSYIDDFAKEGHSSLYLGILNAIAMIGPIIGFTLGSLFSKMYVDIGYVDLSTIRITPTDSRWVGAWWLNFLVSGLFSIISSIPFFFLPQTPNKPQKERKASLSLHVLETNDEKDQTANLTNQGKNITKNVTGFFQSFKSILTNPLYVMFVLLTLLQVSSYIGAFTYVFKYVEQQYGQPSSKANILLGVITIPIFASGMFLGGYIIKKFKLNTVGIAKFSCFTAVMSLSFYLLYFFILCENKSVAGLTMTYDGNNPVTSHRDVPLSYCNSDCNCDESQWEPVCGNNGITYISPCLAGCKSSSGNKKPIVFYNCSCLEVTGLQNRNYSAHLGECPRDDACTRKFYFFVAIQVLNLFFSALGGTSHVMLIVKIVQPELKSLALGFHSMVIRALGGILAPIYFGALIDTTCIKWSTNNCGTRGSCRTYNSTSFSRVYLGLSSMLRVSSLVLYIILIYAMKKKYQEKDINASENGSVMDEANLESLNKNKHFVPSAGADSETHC
The following applies: cited from earlier work.

Data set [4] concerns the target BSEP (Homo sapiens, UniProt O95342). To be noted: cited from earlier work.
Data set [5] has as its target P-gp (Homo sapiens, UniProt P08183). To be noted: cited from earlier work.
The target of data set [6] is T2, BCRP (Homo sapiens, UniProt Q9UNQ0).
T2 sequence (Q9UNQ0 1-655): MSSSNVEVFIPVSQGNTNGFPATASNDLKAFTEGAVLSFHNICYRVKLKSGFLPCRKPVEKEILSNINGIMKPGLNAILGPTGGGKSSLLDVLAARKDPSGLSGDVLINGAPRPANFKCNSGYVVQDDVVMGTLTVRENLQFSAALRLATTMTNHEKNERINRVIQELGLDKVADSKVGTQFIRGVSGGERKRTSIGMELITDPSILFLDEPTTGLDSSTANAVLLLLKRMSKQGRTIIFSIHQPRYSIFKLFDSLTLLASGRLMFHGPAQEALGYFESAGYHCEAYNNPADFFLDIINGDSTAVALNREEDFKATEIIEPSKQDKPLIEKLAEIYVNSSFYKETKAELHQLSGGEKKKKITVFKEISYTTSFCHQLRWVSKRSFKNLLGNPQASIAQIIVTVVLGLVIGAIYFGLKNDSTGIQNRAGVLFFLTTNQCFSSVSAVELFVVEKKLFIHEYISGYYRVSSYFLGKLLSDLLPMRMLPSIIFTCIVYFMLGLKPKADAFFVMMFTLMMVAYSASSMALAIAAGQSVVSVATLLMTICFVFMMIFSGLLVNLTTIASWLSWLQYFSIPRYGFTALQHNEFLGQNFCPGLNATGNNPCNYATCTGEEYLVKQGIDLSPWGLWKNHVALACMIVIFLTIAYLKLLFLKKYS
To be noted: cited from earlier work.

Data set [7] has as its system HCV genotype 3. Kind of data set: activity against genotype 3 in vitro. Details: species or system hepatitis C virus.
Data set [8] is described as follows: PK of single agents vs fixed dose combinations, single dose in healthy volunteers (Example 13). It is filed as in vivo, human. Here is the method:
SMV (100 mg), ODV (50 mg), and Compound (III) (800 mg) were administered as three different formulations or together as single doses in vivo to healthy volunteers. The arms of the study included: • Arm 1 (Reference Arm): Single oral doses of single agents, one SMV 100-mg capsule, one ODV 50-mg tablet as granule layered solid dispersion with copovidone and poloxamers, and two Compound (III) 400-mg tablets, administered together. • Arm 2: Single oral dose of fixed dose combination (FDC02): SMV 100 mg+ODV 50 mg as a spray dried solid dispersion with HPMC-AS L in a ratio ODV/HPMC-AS L 1/1 w/w+Compound (III) 800 mg • Arm 3: Single oral dose of fixed dose combination (FDC04): SMV 100 mg+ODV 50 mg as a spray dried solid dispersion with HPMC-AS L in a ratio ODV/HPMC-AS L 1/3 w/w+Compound (III) 800 mg • Arm 4: Single oral dose of fixed dose combination (FDC01): SMV 100 mg+ODV 50 mg as a spray dried solid dispersion with copovidone and poloxamers+Compound (III) 800 mg
PK parameters, including Cmax, tmax, AUClast, and AUC∞ were measured for Compound (III), ODV, SMV, and metabolites Compound A-1 and Compound A-3 for each Arm of the study. Arms that included fixed dose combinations (FDC) (Arm 2, Arm 3, and Arm 4) were then compared to a single oral dose (Arm 1, the reference Arm). Table 9, Table 10, Table 11, Table 12 and Table 13 display relevant PK parameters and FIG. 9, FIG. 10, FIG. 11, FIG. 12, and FIG. 13 depict the plasma concentration over time of SMV, ODV, Compound A-1, and Compound A-3 for each Arm of the study.

Chain of BSEP (O95342 whole entry): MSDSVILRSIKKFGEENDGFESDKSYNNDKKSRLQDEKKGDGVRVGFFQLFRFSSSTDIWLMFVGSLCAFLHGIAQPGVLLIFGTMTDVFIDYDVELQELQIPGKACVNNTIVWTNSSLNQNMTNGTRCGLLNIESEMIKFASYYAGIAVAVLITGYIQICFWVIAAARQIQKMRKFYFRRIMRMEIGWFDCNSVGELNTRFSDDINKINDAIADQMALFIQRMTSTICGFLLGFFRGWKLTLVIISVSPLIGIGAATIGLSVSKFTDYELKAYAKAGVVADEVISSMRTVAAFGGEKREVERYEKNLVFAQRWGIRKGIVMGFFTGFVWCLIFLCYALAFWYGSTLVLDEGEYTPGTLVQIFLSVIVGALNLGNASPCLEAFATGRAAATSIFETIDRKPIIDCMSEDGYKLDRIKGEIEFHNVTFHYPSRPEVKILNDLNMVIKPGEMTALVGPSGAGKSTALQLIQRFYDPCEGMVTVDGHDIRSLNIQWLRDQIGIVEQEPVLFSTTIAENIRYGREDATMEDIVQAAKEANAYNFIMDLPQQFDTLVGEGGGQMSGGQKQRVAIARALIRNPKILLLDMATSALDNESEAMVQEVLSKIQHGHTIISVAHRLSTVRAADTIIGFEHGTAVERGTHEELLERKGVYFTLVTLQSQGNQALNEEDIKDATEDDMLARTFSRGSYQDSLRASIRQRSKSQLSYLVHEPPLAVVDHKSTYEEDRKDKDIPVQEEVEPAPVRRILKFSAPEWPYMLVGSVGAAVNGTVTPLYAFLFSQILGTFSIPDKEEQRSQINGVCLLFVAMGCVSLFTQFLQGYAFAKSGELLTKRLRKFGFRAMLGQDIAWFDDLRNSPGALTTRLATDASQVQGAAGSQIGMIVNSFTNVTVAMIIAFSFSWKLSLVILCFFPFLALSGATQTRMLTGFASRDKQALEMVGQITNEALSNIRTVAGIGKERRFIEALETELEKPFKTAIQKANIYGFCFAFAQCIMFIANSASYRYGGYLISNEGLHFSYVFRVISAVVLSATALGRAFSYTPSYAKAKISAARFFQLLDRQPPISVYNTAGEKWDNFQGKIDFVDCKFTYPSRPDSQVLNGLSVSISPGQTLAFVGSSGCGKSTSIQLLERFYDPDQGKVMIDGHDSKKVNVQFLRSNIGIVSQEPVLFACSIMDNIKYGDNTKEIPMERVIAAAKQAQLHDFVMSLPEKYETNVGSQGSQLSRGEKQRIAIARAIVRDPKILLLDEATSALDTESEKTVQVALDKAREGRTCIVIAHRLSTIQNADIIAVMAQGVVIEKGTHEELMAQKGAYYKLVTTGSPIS
Chain of P-gp (P08183 whole entry): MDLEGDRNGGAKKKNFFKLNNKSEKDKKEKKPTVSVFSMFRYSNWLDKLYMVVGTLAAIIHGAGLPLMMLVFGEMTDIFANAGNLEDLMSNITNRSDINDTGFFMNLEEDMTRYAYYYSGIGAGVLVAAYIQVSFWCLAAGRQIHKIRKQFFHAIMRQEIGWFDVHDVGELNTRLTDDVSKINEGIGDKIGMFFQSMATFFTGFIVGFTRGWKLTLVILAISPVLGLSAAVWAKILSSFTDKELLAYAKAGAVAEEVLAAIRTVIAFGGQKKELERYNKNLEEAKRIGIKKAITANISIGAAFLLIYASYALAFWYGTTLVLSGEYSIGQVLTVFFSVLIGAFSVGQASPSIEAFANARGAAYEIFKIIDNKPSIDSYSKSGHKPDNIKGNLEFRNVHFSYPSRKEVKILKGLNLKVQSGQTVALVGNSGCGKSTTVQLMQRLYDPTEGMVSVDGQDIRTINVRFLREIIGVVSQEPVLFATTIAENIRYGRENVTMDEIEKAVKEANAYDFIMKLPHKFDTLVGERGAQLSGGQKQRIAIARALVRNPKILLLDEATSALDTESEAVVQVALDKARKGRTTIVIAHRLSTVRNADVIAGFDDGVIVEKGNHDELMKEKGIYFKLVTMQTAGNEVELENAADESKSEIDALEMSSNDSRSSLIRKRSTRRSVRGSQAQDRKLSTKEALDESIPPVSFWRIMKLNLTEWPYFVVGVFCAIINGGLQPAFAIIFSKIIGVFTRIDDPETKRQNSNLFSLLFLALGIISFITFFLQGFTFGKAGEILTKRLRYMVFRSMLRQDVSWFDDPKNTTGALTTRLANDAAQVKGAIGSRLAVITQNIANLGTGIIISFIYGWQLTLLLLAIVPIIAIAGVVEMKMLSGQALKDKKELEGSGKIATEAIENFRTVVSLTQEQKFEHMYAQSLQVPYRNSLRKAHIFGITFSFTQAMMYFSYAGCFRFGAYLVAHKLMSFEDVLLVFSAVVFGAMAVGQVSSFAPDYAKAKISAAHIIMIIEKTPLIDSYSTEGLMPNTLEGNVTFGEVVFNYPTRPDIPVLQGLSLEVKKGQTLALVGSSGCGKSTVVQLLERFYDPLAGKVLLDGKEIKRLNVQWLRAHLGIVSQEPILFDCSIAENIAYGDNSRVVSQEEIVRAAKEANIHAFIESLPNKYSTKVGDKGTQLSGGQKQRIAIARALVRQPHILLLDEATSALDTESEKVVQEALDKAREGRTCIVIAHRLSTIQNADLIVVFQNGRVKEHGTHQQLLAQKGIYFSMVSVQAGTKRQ

In the case of `COC(=O)N[C@H](C(=O)N1[C@H](c2nc3cc(-c4cc5ccc4CCc4ccc(c(-c6ccc7[nH]c([C@@H]8C[C@@H]9CCCC[C@@H]9N8C(=O)[C@@H](NC(=O)OC)C(C)C)nc7c6)c4)CC5)ccc3[nH]2)C[C@@H]2CCCC[C@@H]21)C(C)C` [Odalasvir, methyl [(2,)-1-[(2S,3aS,7aS)-2-[6-[11-[2-[(2S,3aS,7aS)-1-[(2S)-2-[(methoxycarbonyl)amino]-3-methylbutanoyl]octahydro-1H-indol-2-yl]-1H-benzimidazol-6-yl]tricyclo[8.2.2.2^4,7]hexadeca-1(12),4,6,10,13,15-hexaen-5-yl]-1H-benzimidazol-2-yl]octahydro-1H-indol-1-yl]-3-methyl-1-oxobutan-2-yl]carbamate], in data set [1] (Compound (III) 400 mg, ODV 50 mg QD, SMV 100 mg QD), the “observed exposures in Cohort 1 / group (i)” value is recorded as “higher than anticipated”. Besides, the “decrease of ODV exposure on reducing ODV dosing from QD to QOD” value in data set [1] (in vivo) is reported as “proportionally”. For the same compound, the “in vitro inhibition of MRP3” value in data set [2] is listed as “no inhibition”. Also, the “in vitro inhibition of OATP1B1” value in data set [3] was “no inhibition”. The “in vitro inhibition of BSEP” value in data set [4] is listed as “no inhibition”. The “in vitro inhibition of P-gp” value in data set [5] is given as “moderate inhibition”. Besides, the “in vitro inhibition of BCRP” value in data set [6] is listed as “no inhibition”. For the same compound, the “activity against genotype 3 in vitro” value in data set [7] was “effective”. The t1/2term is listed as 168.6 ± 21.7 h in data set [8] (Arm 1 (reference): single agents, mean ± SD); 169.0 ± 24.5 h in data set [8] (Arm 2: FDC02, mean ± SD); 176.0 ± 29.5 h in data set [8] (Arm 3: FDC04, mean ± SD); 167.8 ± 22.4 h in data set [8] (Arm 4: FDC01, mean ± SD). Moreover, the “Least Square Means Ratio, Cmax” value in data set [8] (Arm 2 (FDC02) vs reference) came out at 81.00%. Also, the “AUC∞” value in data set [8] (Arm 2: FDC02, mean ± SD) was 7040 ± 2130 ng·h/mL. Also, the Cmax (as a rule, the maximum level reached in the sampled fluid or tissue) in data set [8] (Arm 4: FDC01 (SMV 100 mg + ODV 50 mg spray dried with copovidone and poloxamers + Compound (III) 800 mg), mean ± SD) came to 298 ± 81.7 ng/mL. Moreover, in data set [8] (Arm 4: FDC01, mean ± SD), the AUClast was 11127 ± 3354 ng·h/mL.
